Source: patent US20060005464A1, “Alkyl ethanolamine and biocide combination for hydrocarbon based fuels” (priority 2004, published 2006)

Assays:
[1] = tested on: Pseudomonas Aeruginosa (ATCC27853); experiment: Microtiter plate growth of Pseudomonas Aeruginosa with amines and GROTAN; assay type: cell-based; settings: for growth of Pseudomonas Aeruginosa (Table 1 entry): pH 8.5, 24 hours; for enhancement in the biocidal effect of GROTAN: conclusion from Table 1
[2] = tested on: mixed enteric bacteria (klebsiella pneumoniae, Proteus vulgarus, Citrobacter sp., Escherichia coli); experiment: Maximum growth slope of mixed enteric bacteria culture with GROTAN plus alkanolamine; assay type: cell-based; settings: pH 9.0, TSB with emulsified oil, 24 hour
Procedure: A culture of mixed enteric bacteria (klebsiella pneumoniae, Proteus vulgarus, Citrobacter sp., Escherichia coli) at pH=9.0 in TSB (trypticase soy broth) media mixed with emulsified oil was prepared. A biocide, GROTAN® {78.5% 1,3,5-(2-hydroxyethyl)-s-triazine solution in water} as sold by Troy Chemicals (Florham Park, N.J.) was added at varying concentrations to the culture in combination with 2500 ppm of one of the four alkanolamines, N-butylaminoethanol (BAE), diethanolamine (DEA), diglycolamine (DGA) or 2-amino-2-methyl-1-propanol (AMP). Optical density measurements were taken every 15 minutes over a 24 hour time period (total of 96 data points). The maximum growth slope was calculated by taking the 10 contiguous data points that result in the highest growth slope (units of OD per time) over the 24 hour period. Those 10 data points were subjected to a least squares linear fit to calculate the maximum growth slope.

[3] = tested on: Pseudomonas aeruginosa (ATCC 10145); experiment: Maximum growth slope of Pseudomonas aeruginosa with Proxel DB20 (BIT) plus alkanolamine; assay type: cell-based; settings: pH 8.5, TSB, 24 hour
Procedure: A culture of Pseudomonas aeruginosa (ATCC 10145) at pH=8.5 in TSB (trypticase soy broth) media was prepared. The biocide Proxel DB20 (20% suspension of benzoisothiazolone (BIT) in water), as sold by Avecia, was added at varying concentrations in combination with 1000 ppm or 2000 ppm of the alkanolamines N-butylaminoethanol (BAE), 2-amino-2-methyl-1-propanol (AMP), dibutylaminoethanol (DBAE) or n-octylaminoethanol (OAE). Optical density measurements were taken every 15 minutes over a 24 hour time period (total of 96 data points). The maximum growth slope was calculated by taking the 10 contiguous data points that result in the highest growth slope (units of OD per time) over a 24 hour period. Those 10 data points were subjected to a least squares linear fit to calculate the maximum growth slope.

[4] = tested on: Mycobacterium smegmatis (ATCC # 19420); experiment: End-point optical density of Mycobacterium smegmatis with N-alkyl alkanolamines (590 nm, 72 h); assay type: cell-based; settings: 590 nm, after 72 hours, pH 8.5, tetrazolium dye
[5] = tested on: Aureobasidium pullulans (ATCC 12536); experiment: End-point optical density of Aureobasidium pullulans with MIT/CMIT plus alkanolamine; assay type: cell-based; settings: SAB media pH 8.5
Procedure: The impact of N-alkylalkanolamines on the control of the bacterial species Aureobasidium pullulans (ATCC 12536), a bacteria common in water-oil systems, was evaluated by measuring optical absorbance of samples treated with various concentrations of N-alkyl alkanolamines. […] SAB media at pH 8.5 (Tris buffer) was employed. Table 8 summarizes measurement of end-point optical density after 24 hours and 48 hours: […]

[6] = tested on: Pseudomonas aeruginosa (ATCC 10145); experiment: Maximum growth slope of Pseudomonas aeruginosa with Bronopol plus alkanolamine; settings: pH 8.5, TSB
[7] = tested on: Mycobacterium marinum (ATCC # 19420); experiment: End-point optical density and MIC, Mycobacterium marinum (660 nm, 72 h); assay type: cell-based; settings: pH 8.5; for end-point optical density: 660 nm, after 72 hours
Procedure: The impact of N-alkylalkanolamines on the control of the bacterial species Mycobacterium smegmatis (ATCC # 19420), a bacteria common in water-oil systems, was evaluated by measuring optical absorbance of samples treated with various alkyl ethanolaminesis DCHA=Dicyclohexylamine, OAE=Octylaminoethanol, ODEA=Octyldiethanolamine. Bacterial concentration was monitored indirectly via optical absorbance at 660 nm. The values reported are end-point optical densities in milliOD units after 48 hours. The media consisted of a standardized solution of clear nutrient broth (Middlebrook 7H10 with OADC supplement), amine, buffer (Tris) and water. The pH was adjusted initially to 8.5 with Tris buffer. The first column in the Table gives the amine concentration in ppm. The final two columns give data for cells that also contained 2 grams per liter of boric acid. In all cases, the values are averages of at least three replicates. The final row of the Table gives an estimate of the concentration range in which the amine in question starts to inhibit the growth of this bacterial species.
The impact of the N-alkylalkanolamines of Example 6 on the control of the bacterial species Mycobacterium marinum (ATCC # 19420), bacteria common in water-oil systems, was evaluated as described above in Example 6. Bacterial concentration in the experimental media was monitored indirectly via optical absorbance at 660 nm. The values reported are end-point optical densities in milliOD units after 72 hours. The media consisted of a standardized solution of clear nutrient broth (Middlebrook 7H10 with OADC supplement), amine, buffer (Tris) and water. The pH was adjusted initially to 8.5 with Tris buffer. The first column in the Table gives the amine concentration in ppm. In all cases, the values are averages of at least three replicates. The final row of the Table gives an estimate of the concentration range in which the amine in question starts to inhibit the growth of this bacterial species.

[8] = amine 2000 ppm plus GROTAN 100 ppm
[9] = amine 2000 ppm plus GROTAN 250 ppm
[10] = amine 2000 ppm plus GROTAN 500 ppm
[11] = amine 2000 ppm plus GROTAN 1000 ppm
[12] = amine 2000 ppm plus GROTAN 2000 ppm
[13] = amine 4000 ppm plus GROTAN 100 ppm
[14] = amine 4000 ppm plus GROTAN 250 ppm
[15] = amine 4000 ppm plus GROTAN 500 ppm
[16] = amine 4000 ppm plus GROTAN 1000 ppm
[17] = amine 4000 ppm plus GROTAN 2000 ppm
[18] = 2500 ppm amine plus GROTAN 650 ppm
[19] = 2500 ppm amine plus GROTAN 1650 ppm
[20] = amine 1000 ppm plus BIT 150 ppm
[21] = amine 1000 ppm plus BIT 250 ppm
[22] = amine 1000 ppm plus BIT 500 ppm
[23] = amine 2000 ppm plus BIT 150 ppm
[24] = amine 2000 ppm plus BIT 250 ppm
[25] = amine 2000 ppm plus BIT 500 ppm
[26] = amine 1000 ppm plus 50 ppm MIT/CMIT, 24 hours
[27] = amine 1000 ppm plus 50 ppm MIT/CMIT, 48 hours
[28] = amine 2000 ppm plus 50 ppm MIT/CMIT, 24 hours
[29] = amine 2000 ppm plus 50 ppm MIT/CMIT, 48 hours
[30] = amine 2000 ppm plus Bronopol 5 ppm
[31] = amine 2000 ppm plus Bronopol 15 ppm
[32] = amine 2000 ppm plus Bronopol 25 ppm
[33] = amine 2000 ppm plus Bronopol 35 ppm

SMILES: CC(C)(N)CO [AMP, 2-methyl-2-amino-1-propanol, reference compound]
- growth of Pseudomonas Aeruginosa (Table 1 entry) [1, 8]: 0.72
- growth of Pseudomonas Aeruginosa (Table 1 entry) [1, 9]: 0.72
- growth of Pseudomonas Aeruginosa (Table 1 entry) [1, 10]: 0.72
- growth of Pseudomonas Aeruginosa (Table 1 entry) [1, 11]: 0.31
- growth of Pseudomonas Aeruginosa (Table 1 entry) [1, 12]: 0.35
- growth of Pseudomonas Aeruginosa (Table 1 entry) ([1]; amine 2000 ppm, GROTAN 0 ppm): 0.72
- growth of Pseudomonas Aeruginosa (Table 1 entry) [1, 13]: 0.72
- growth of Pseudomonas Aeruginosa (Table 1 entry) [1, 14]: 0.69
- growth of Pseudomonas Aeruginosa (Table 1 entry) [1, 15]: 0.39
- growth of Pseudomonas Aeruginosa (Table 1 entry) [1, 16]: 0.30
- growth of Pseudomonas Aeruginosa (Table 1 entry) [1, 17]: 0.37
- growth of Pseudomonas Aeruginosa (Table 1 entry) ([1]; amine 4000 ppm, GROTAN 0 ppm): 1.12
- enhancement in the biocidal effect of GROTAN [1]: not seen
- maximum growth slope [2, 18]: 0.32 OD per time
- maximum growth slope [2, 19]: 0.069 OD per time
- maximum growth slope ([2]; 2500 ppm amine, GROTAN 0 ppm): 1.065 OD per time
- maximum growth slope [3, 20]: 0.667 OD per time
- maximum growth slope [3, 21]: 0.508 OD per time
- maximum growth slope [3, 22]: 0.407 OD per time
- maximum growth slope ([3]; amine 1000 ppm, BIT 0 ppm): 0.478 OD per time
- maximum growth slope [3, 23]: 0.361 OD per time
- maximum growth slope [3, 24]: 0.320 OD per time
- maximum growth slope [3, 25]: 0.228 OD per time
- maximum growth slope ([3]; amine 2000 ppm, BIT 0 ppm): 0.29 OD per time
- end-point optical density ([4]; amine 470 ppm): 2100 milliOD
- end-point optical density ([4]; amine 940 ppm): 2200 milliOD
- end-point optical density ([4]; amine 1880 ppm): 2100 milliOD
- end-point optical density ([4]; amine 3750 ppm): 2000 milliOD
- end-point optical density ([4]; amine 7500 ppm): 1700 milliOD
- end-point optical density [5, 26]: 0.3
- end-point optical density [5, 27]: 0.4
- end-point optical density [5, 28]: 0.3
- end-point optical density [5, 29]: 0.4
- maximum growth slope [6, 30]: 0.345
- maximum growth slope [6, 31]: 0.327
- maximum growth slope [6, 32]: 0
- maximum growth slope [6, 33]: 0

SMILES: CCCCNCCO [BAE, butylaminoethanol]
- growth of Pseudomonas Aeruginosa (Table 1 entry) [1, 8]: 0.49
- growth of Pseudomonas Aeruginosa (Table 1 entry) [1, 9]: 0.45
- growth of Pseudomonas Aeruginosa (Table 1 entry) [1, 10]: 0.35
- growth of Pseudomonas Aeruginosa (Table 1 entry) [1, 11]: 0.30
- growth of Pseudomonas Aeruginosa (Table 1 entry) [1, 12]: 0.36
- growth of Pseudomonas Aeruginosa (Table 1 entry) ([1]; amine 2000 ppm, GROTAN 0 ppm): 0.37
- growth of Pseudomonas Aeruginosa (Table 1 entry) [1, 13]: 0.35
- growth of Pseudomonas Aeruginosa (Table 1 entry) [1, 14]: 0.32
- growth of Pseudomonas Aeruginosa (Table 1 entry) [1, 15]: 0.25
- growth of Pseudomonas Aeruginosa (Table 1 entry) [1, 16]: 0.29
- growth of Pseudomonas Aeruginosa (Table 1 entry) [1, 17]: 0.36
- growth of Pseudomonas Aeruginosa (Table 1 entry) ([1]; amine 4000 ppm, GROTAN 0 ppm): 0.49
- enhancement in the biocidal effect of GROTAN [1]: provide an enhancement in the biocidal effect of GROTAN®
- maximum growth slope [2, 18]: 0.082 OD per time
- maximum growth slope [2, 19]: 0.0515 OD per time
- maximum growth slope ([2]; 2500 ppm amine, GROTAN 0 ppm): 0.2 OD per time
- maximum growth slope [3, 20]: 0.317 OD per time
- maximum growth slope [3, 21]: 0.353 OD per time
- maximum growth slope [3, 22]: 0.281 OD per time
- maximum growth slope ([3]; amine 1000 ppm, BIT 0 ppm): 0.333 OD per time
- maximum growth slope [3, 23]: 0.134 OD per time
- maximum growth slope [3, 24]: 0.000 OD per time
- maximum growth slope [3, 25]: 0.000 OD per time
- maximum growth slope ([3]; amine 2000 ppm, BIT 0 ppm): 0.000 OD per time
- end-point optical density ([4]; amine 470 ppm): 2200 milliOD
- end-point optical density ([4]; amine 940 ppm): 2100 milliOD
- end-point optical density ([4]; amine 1880 ppm): 2000 milliOD
- end-point optical density ([4]; amine 3750 ppm): 1900 milliOD
- end-point optical density ([4]; amine 7500 ppm): 1700 milliOD
- MIC (estimate of the concentration range in which the amine starts to inhibit growth) ([7]; 72 hours): >4000 ppm
- end-point optical density ([7]; amine 800 ppm): 0.7 milliOD
- end-point optical density ([7]; amine 1200 ppm): 0.7 milliOD
- end-point optical density ([7]; amine 2000 ppm): 0.6 milliOD
- end-point optical density ([7]; amine 4000 ppm): 0.6 milliOD
- end-point optical density [5, 26]: 0.3
- end-point optical density [5, 27]: 0.3
- end-point optical density [5, 28]: 0.2
- end-point optical density [5, 29]: 0.2
- maximum growth slope [6, 30]: 0.083
- maximum growth slope [6, 31]: 0
- maximum growth slope [6, 32]: 0
- maximum growth slope [6, 33]: 0

SMILES: OCCNCCO [DEA, diethanolamine]
- maximum growth slope [2, 18]: 0.466 OD per time
- maximum growth slope [2, 19]: 0.117 OD per time
- maximum growth slope ([2]; 2500 ppm amine, GROTAN 0 ppm): 0.723 OD per time

SMILES: NCCOCCO [DGA, diglycolamine, reference compound]
- growth of Pseudomonas Aeruginosa (Table 1 entry) [1, 8]: 0.71
- growth of Pseudomonas Aeruginosa (Table 1 entry) [1, 9]: 0.70
- growth of Pseudomonas Aeruginosa (Table 1 entry) [1, 10]: 0.76
- growth of Pseudomonas Aeruginosa (Table 1 entry) [1, 11]: 0.32
- growth of Pseudomonas Aeruginosa (Table 1 entry) [1, 12]: 0.34
- growth of Pseudomonas Aeruginosa (Table 1 entry) ([1]; amine 2000 ppm, GROTAN 0 ppm): 0.76
- growth of Pseudomonas Aeruginosa (Table 1 entry) [1, 13]: 0.70
- growth of Pseudomonas Aeruginosa (Table 1 entry) [1, 14]: 0.69
- growth of Pseudomonas Aeruginosa (Table 1 entry) [1, 15]: 0.36
- growth of Pseudomonas Aeruginosa (Table 1 entry) [1, 16]: 0.29
- growth of Pseudomonas Aeruginosa (Table 1 entry) [1, 17]: 0.36
- growth of Pseudomonas Aeruginosa (Table 1 entry) ([1]; amine 4000 ppm, GROTAN 0 ppm): 0.68
- enhancement in the biocidal effect of GROTAN [1]: not seen
- maximum growth slope [2, 18]: 0.1955 OD per time
- maximum growth slope [2, 19]: 0.0725 OD per time
- maximum growth slope ([2]; 2500 ppm amine, GROTAN 0 ppm): 0.796 OD per time
